Species: Mus musculus
Test: Analgesic activity in mouse by hot-plate method
Assay type: functional

SMILES | log(1/C)
CC[C@@]12CCN(C)C(Cc3ccc(O)cc31)[C@H]2C | 3.92
CCC[C@@]12CCN(C)C(Cc3ccc(O)cc31)C2 (mixture of isomers) | 2.43
CCC[C@@]12CCN(C)C(Cc3ccc(O)cc31)[C@H]2C (mixture of isomers) | 3.45
CN1CC[C@@]2(C)CC1Cc1ccccc12 (mixture of isomers) | 1.33
C=CC#CCN1CC[C@]2(CC)c3cc(O)ccc3CC1[C@@H]2CC (stereo in doubt; 90) | 1.79
CC[C@H]1C2Cc3ccc(O)cc3[C@@]1(C)CCN2C (stereo in doubt; 21) | 2.62
CN1CC[C@]2(C)c3cc(O)ccc3CC1[C@@]2(C)O (mixture of isomers) | 2.15
COc1ccc2c(c1)[C@@]1(C)CCN(C)C(C2)[C@H]1O (mixture of isomers) | 1.14
CN1CC[C@H]2CC1Cc1ccccc12 (mixture of isomers) | 1.3
CN1CC[C@@H]2c3cc(O)ccc3CC1[C@H]2CO (mixture of isomers) | 1.62
COc1ccc2c(c1)[C@@]1(C)CCN(CCc3ccccc3)C(C2)[C@@H]1O (mixture of isomers) | 1.58
CC(=O)Oc1ccc2c(c1)[C@H]1CCN(C)C(C2)C1 (mixture of isomers) | 1.57
CC[C@@]12CCN(C)C(Cc3ccc(O)cc31)[C@H]2O (mixture of isomers) | 1.67
C[C@@H]1C2Cc3ccc(O)cc3[C@@]1(c1ccccc1)CCN2C (stereo in doubt; 88) | 1.99
COc1ccc2c(c1)[C@@]1(c3ccccc3)CCN(C)C(C2)[C@H]1C | 2.14
CN1CC[C@]2(C)c3cc(O)ccc3CC1[C@]2(C)O (mixture of isomers) | 1.89
C[C@H]1C2Cc3ccc(O)cc3[C@@]1(C)CCN2CCc1cccs1 (mixture of isomers) | 4.04
CC(=O)O[C@@]12CCN(C)C(Cc3ccccc31)C2 (mixture of isomers) | 1.64
CN1CC[C@@]2(c3ccccc3)CC1Cc1ccccc12 (stereo in doubt; 89) | 1.87
CC(=O)Oc1ccc2c(c1)[C@@]1(C)CCN(C)C(C2)C1 (mixture of isomers) | 1.98
CC(C)=CCN1CC[C@]2(C)c3cc(O)ccc3CC1[C@H]2C | 1.7
CN1CC[C@H]2CC1Cc1ccc(O)cc12 (stereo in doubt; 46) | 1.72

SMILES | log(1/C)
C[C@H]1C2Cc3ccccc3[C@@]1(O)CCN2C (mixture of isomers) | 0.75
CN1CC[C@]2(C)c3ccccc3CC1[C@@H]2O (mixture of isomers) | 0.97
C[C@H]1[C@H]2Cc3ccc(O)cc3[C@@]1(C)CCN2CC1CC1 (racemic) | 1.37
c1ccc2c(c1)CC1C[C@@H]2CCN1 (mixture of isomers) | 1.31
C[C@H]1C2Cc3ccc(OC(=O)c4cccnc4)cc3[C@@]1(C)CCN2CCc1ccccc1 | 3.68
CC(=O)Oc1ccc2c(c1)[C@@]1(C)CCN(C)C(C2)[C@@H]1C (mixture of isomers) | 2.72
CC[C@@]12CCN(C)C(Cc3ccc(O)cc31)C2 (stereo in doubt; 20) | 2.62
CCCC[C@@]12CCN(C)C(Cc3ccc(O)cc31)C2 (mixture of isomers) | 2.17
CC[C@H]1C2Cc3ccc(O)cc3[C@@]1(CC)CCN2C (stereo in doubt; 93) | 1.51
C[C@H]1C2Cc3ccc(OC(=O)c4cccnc4)cc3[C@@]1(C)CCN2CC1CC1 (mixture of isomers) | 2.59
CC[C@@H]1C2Cc3ccc(O)cc3[C@@]1(C)CCN2C (mixture of isomers) | 3.07
CC[C@@]12CCN(C)C(Cc3ccc(O)cc31)[C@]2(C)OC(C)=O (mixture of isomers) | 2.78
CC(=O)Oc1ccc2c(c1)[C@@]1(C)CCN(CCC(=O)c3ccccc3)C(C2)[C@@H]1C (mixture of isomers) | 2.49
CCC[C@@]12CCN(C)C(Cc3ccc(O)cc31)[C@@H]2C (stereo in doubt; 25) | 2.57
CN1CC[C@@]2(C)CC1Cc1ccc(O)cc12 (stereo in doubt; 98) | 1.04
CC[C@@H]1C2Cc3ccc(O)cc3[C@@]1(CC)CCN2C (stereo in doubt; 95) | 1.31
CC[C@H]1C2Cc3ccc(OC(C)=O)cc3[C@@]1(CC)CCN2C (mixture of isomers) | 2.36
CC[C@H]1C2Cc3ccc(O)cc3[C@@]1(CC)CCN2C (stereo in doubt; 30) | 2.35
CC(C)=CCN1CC[C@]2(C)c3cc(O)ccc3CC1[C@@H]2C | 1.53
CCC[C@@H]1C2Cc3ccc(O)cc3[C@@]1(CCC)CCN2C (mixture of isomers) | 2.88
CC[C@@]12CCN(C)C(Cc3ccc(OC(C)=O)cc31)[C@]2(C)OC(C)=O (mixture of isomers) | 2.82
CC[C@@]12CCN(C)C(Cc3ccc(OC)cc31)[C@@H]2O (mixture of isomers) | 0.99

SMILES | log(1/C)
CN1CC[C@@]2(C)CC1Cc1ccc(O)cc12 (stereo in doubt; 31) | 2.16
CC[C@@]12CCN(C)C(Cc3ccc(O)cc31)[C@@]2(C)O (mixture of isomers) | 2.61
CCCCC(=O)Oc1ccc2c(c1)[C@@]1(c3ccccc3)CCN(C)C(C2)[C@H]1C | 2.78
CC[C@@H]1C2Cc3ccccc3[C@@]1(CC)CCN2C (mixture of isomers) | 1.8
CC[C@H]1C2Cc3ccc(O)cc3[C@@]1(C)CCN2C (stereo in doubt; 97) | 1.2
CCCCC[C@@]12CCN(C)C(Cc3ccc(O)cc31)C2 (mixture of isomers) | 1.96
C[C@H]1C2Cc3ccccc3[C@@]1(C)CCN2C (mixture of isomers) | 1.27
CC[C@@H]1C2Cc3ccc(O)cc3[C@@]1(CC)CCN2C (stereo in doubt; 6) | 3.51
C=CC#CCN1CC[C@]2(CC)c3cc(O)ccc3CC1[C@@H]2CC (stereo in doubt; 72) | 3.7
CCC[C@@]12CCN(C)C(Cc3ccccc31)[C@H]2C (mixture of isomers) | 1.76
CCC[C@@]12CCN(C)C(Cc3ccccc31)[C@@H]2C (mixture of isomers) | 1.42
C[C@@H]1C2Cc3ccc(O)cc3[C@@]1(C)CCN2C (stereo in doubt; 9) | 3.22
CC[C@@]1(O)C2Cc3ccc(OC)cc3[C@@]1(C)CCN2C (mixture of isomers) | 1.87
C[C@@]12CCNC(Cc3ccc(O)cc31)[C@H]2O (mixture of isomers) | 0.88
CC(=O)O[C@H]1C2Cc3ccccc3[C@@]1(C)CCN2C (mixture of isomers) | 1.37
CC[C@@]12CCN(C)C(Cc3ccc(O)cc31)[C@@H]2C (mixture of isomers) | 2.06
C[C@@H]1C2Cc3ccc(O)cc3[C@@]1(c1ccccc1)CCN2C (stereo in doubt; 8) | 3.26
CC[C@@]12CCN(CCc3ccccc3)C(Cc3ccc(O)cc31)C2 (mixture of isomers) | 3.66
C[C@H]1C2Cc3ccc(O)cc3[C@@]1(C)CCN2C | 2.71
CCC(=O)Oc1ccc2c(c1)[C@@]1(C)CCN(C)C(C2)C1 (mixture of isomers) | 1.98
CCC[C@@]12CCN(CCc3ccccc3)C(Cc3ccc(O)cc31)[C@@H]2C (mixture of isomers) | 2.92
CC[C@H]1C2Cc3ccc(OC)cc3[C@@]1(CC)CCN2C (stereo in doubt; 91) | 1.62

SMILES | log(1/C)
CN1CC[C@]2(C)c3ccccc3CC1[C@]2(C)O (mixture of isomers) | 1.16
C[C@@H]1C2Cc3ccc(O)cc3[C@@]1(C)CCN2C (stereo in doubt; 92) | 1.6
CC[C@H]1C2Cc3ccc(OC(=O)c4cccnc4)cc3[C@@]1(CC)CCN2C (mixture of isomers) | 1.54
COc1ccc2c(c1)[C@@]1(C)CCN(CCc3ccccc3)C(C2)[C@@H]1C | 2.66
CC[C@@]12CCN(C)C(Cc3ccc(OC)cc31)[C@@H]2OC(C)=O (mixture of isomers) | 1.48
C[C@@H]1C2Cc3ccccc3[C@@]1(C)CCN2C (mixture of isomers) | 1.82
C[C@]1(O)C2Cc3ccc(O)cc3[C@@]1(C)CCN2CCc1ccccc1 (mixture of isomers) | 2.05
COc1ccc2c(c1)[C@@]1(C)CCN(C)C(C2)[C@]1(C)O (mixture of isomers) | 1.65
COc1ccc2c(c1)[C@@]1(C)CCN(C)C(C2)[C@@H]1C | 1.87
COc1ccc2c(c1)[C@@]1(C)CCN(C)C(C2)[C@@]1(C)O | 1.48
C[C@H]1C2Cc3ccc(F)cc3[C@@]1(C)CCN2C (mixture of isomers) | 1.08
CCC[C@@]12CCN(C)C(Cc3ccc(O)cc31)[C@@H]2C (stereo in doubt; 94) | 1.38
C[C@@]12CCN(CCc3ccccc3)C(Cc3ccc(O)cc31)[C@@H]2O (mixture of isomers) | 2.99
CCCC(=O)Oc1ccc2c(c1)[C@@]1(C)CCN(C)C(C2)C1 (mixture of isomers) | 1.92
CCC(=O)O[C@@]12CCN(C)C(Cc3ccccc31)C2 (mixture of isomers) | 1.43
C[C@H]1C2Cc3ccc(Cl)cc3[C@@]1(C)CCN2C (mixture of isomers) | 0.83
CC[C@@]12CCN(C)C(Cc3ccc(O)cc31)C2 (stereo in doubt; 99) | 1.03
CN1CC[C@]2(C)c3ccccc3CC1[C@@]2(C)O (mixture of isomers) | 0.68
CN1CC[C@@]2(c3ccccc3)CC1Cc1ccccc12 (stereo in doubt; 44) | 1.77
CC(=O)Oc1ccc2c(c1)[C@@]1(C)CCN(C)C(C2)[C@]1(C)OC(C)=O (mixture of isomers) | 2.66
C[C@H]1C2Cc3ccc(O)cc3[C@@]1(C)CCN2CCc1ccccc1 (stereo in doubt; 2) | 3.83
C[C@@H]1C2CCN(CCc3ccccc3)C1Cc1ccc(O)cc12 (mixture of isomers) | 3.21
